Measured values reported in PubChem BioAssay (NCI).
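48-hour exposure; five concentrations; linearly interpolated endpoints. GI50: concentration for 50% inhibition of growth. Definition used: TGI = concentration required for complete inhibition of growth.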

Columns and labels:
Test in all cases: growth of human tumour cells (NCI), 48 h
DLD-1 colon = system: DLD-1 colon
LXFL 529 NSCLC = system: LXFL 529 NSCLC
HOP-18 NSCLC = system: HOP-18 NSCLC
DMS 273 small cell lung = system: DMS 273 small cell lung
XF 498 CNS = system: XF 498 CNS
KM20L2 colon = system: KM20L2 colon
NCI/ADR-RES ovarian = system: NCI/ADR-RES ovarian
MCF7 breast = system: MCF7 breast

Structure (SMILES)	TGI (DLD-1 colon)	TGI (LXFL 529 NSCLC)	TGI (HOP-18 NSCLC)	TGI (DMS 273 small cell lung)	TGI (XF 498 CNS)	TGI (KM20L2 colon)	GI50 (NCI/ADR-RES ovarian)	TGI (NCI/ADR-RES ovarian)	GI50 (MCF7 breast)	TGI (MCF7 breast)	further results
CCCCNC(=S)Nn1c(-c2ccccc2)nc2ccccc2c1=O	> 100 µM	> 100 µM	> 100 µM	> 100 µM							
C[N+](C)(C)CC(=O)N/N=C(/C=C/c1ccccc1)CC1OC(=O)c2ccccc21 (configuration not stated)	> 100 µM	> 100 µM	> 100 µM	> 100 µM	> 100 µM	> 100 µM					
CC(C)Oc1cc(OCC(=O)O)cc(C(=O)N(CCC(N)=O)C(=O)Nc2ccc(C(=O)O)cc2OC(C)C)c1							> 100 µM	> 100 µM	> 100 µM	> 100 µM	
CC/C=C/[C@@H]1C=C[C@@H]2CCC[C@H]2[C@@H]1CC[C@H](O)[C@H](C)N							1.97 µM	4.4 µM	1.52 µM	2.85 µM	
CC(=O)OC1COC(N2C(=O)C(=O)c3c(C)cc(Cl)nc32)C(OC(C)=O)C1OC(C)=O (configuration not stated)	> 100 µM	> 100 µM	> 100 µM	> 100 µM	> 100 µM	> 100 µM					
COC1CC(OC2OC(CO)C(O)C(O)C2O)/C(=C\C#N)C(O)C1OC (configuration not stated)								> 100 µM		> 100 µM	
C=C1C(=O)OC(CCCCCCCC)C1C(=O)O (configuration not stated)							21.6 µM	59.7 µM	12.6 µM	26.5 µM	
CC1CN(CCO)CC(C)O1 (configuration not stated)								> 100 µM		> 100 µM	
CC(C)NC(=O)OCc1nnn2c1C(OC(=O)NC(C)C)CC2 (configuration not stated)	> 100 µM	> 100 µM	> 100 µM	> 100 µM	> 100 µM	> 100 µM					
O=C(Cn1ccnc1[N+](=O)[O-])NCCO								> 100 µM		> 100 µM	
Cc1ccc(CCC(=O)Nc2ncc(Cc3cc(Cl)ccc3Cl)s2)o1							0.159 µM	1.41 µM	0.0439 µM	> 100 µM	
COc1ccc(CN2CCc3c(Cl)nc(N)nc3C2=O)c(OC)c1							27.2 µM	87 µM	15.7 µM	61.3 µM	
CCCCN(CCCC)C(=Nc1ccccc1)N(CCCC)CCCC	43.6 µM	18.5 µM	6.39 µM	17.1 µM	5.95 µM	12.5 µM					
COC(=O)C1Cc2c([nH]c3ccccc23)[C@H](CC(C)C)N1 (some centres not stated)	> 100 µM	> 100 µM	> 100 µM	> 100 µM	> 100 µM	> 100 µM					
CC(C)c1ccc2c(c1)CCC1C(C)(C)[C@@H](O)CC[C@]21C (some centres not stated)	> 100 µM	> 100 µM		> 100 µM		44.4 µM					
COc1cc([C@@H]2c3cc4c(cc3[C@H](OC3OC5COC(c6ccccc6)OC5C(O)C3O)[C@H]3COC(=O)[C@H]23)OCO4)cc(OC)c1OC (some centres not stated)							0.4 µM	3 µM	0.279 µM	4.2 µM	

Structure (SMILES)	TGI (DLD-1 colon)	TGI (LXFL 529 NSCLC)	TGI (HOP-18 NSCLC)	TGI (DMS 273 small cell lung)	TGI (XF 498 CNS)	TGI (KM20L2 colon)	GI50 (NCI/ADR-RES ovarian)	TGI (NCI/ADR-RES ovarian)	GI50 (MCF7 breast)	TGI (MCF7 breast)	further results
O=C(c1ccccc1)c1nnn(Cc2cccc(Cl)c2)c1C(=O)c1ccccc1	> 100 µM	> 100 µM	> 100 µM	> 100 µM	> 100 µM	> 100 µM					
O=C(CCCCCCc1nc2ccc(Br)cc2[nH]1)NO							0.216 µM	1.87 µM	0.425 µM	> 100 µM	
COC(=O)C(=O)C(C#N)c1cccc2ccccc12 (configuration not stated)	> 100 µM	> 100 µM	> 100 µM	> 100 µM	> 100 µM	> 100 µM					
O=C1CCCC1C(=O)Nc1ccc2ccccc2c1 (configuration not stated)								> 100 µM		> 100 µM	
N#Cc1c(N)nn(C(=O)c2ccc(NC(=O)c3ccccn3)cc2)c1-c1ccc(Cl)cc1							4.09 µM	> 100 µM	2.71 µM	> 100 µM	
c1ccc([CH2][Sn]([CH2]c2ccccc2)([S]c2cccc3cccnc23)[S]c2cccc3cccnc23)cc1	0.886 µM	0.244 µM	0.84 µM		0.367 µM	1.14 µM					GI50 (XF 498 CNS): 0.109 µM; GI50 (DLD-1 colon): 0.282 µM; GI50 (LXFL 529 NSCLC): 0.101 µM; GI50 (HOP-18 NSCLC): 0.246 µM; GI50 (KM20L2 colon): 0.365 µM
CCCOC(=O)C1CCC(=O)N1C(=O)C(Cl)Cl (configuration not stated)	> 100 µM	> 100 µM	> 100 µM	> 100 µM	> 100 µM	> 100 µM					
O=C(CC(O)(c1ccccc1)c1ccc(Cl)cc1)NC(=O)c1ccccc1O (configuration not stated)	> 100 µM	56.3 µM	8.97 µM	39 µM		34.3 µM					
Cc1nc2c(cnn2-c2ccnc3c(C(F)(F)F)cccc23)c(=O)o1							> 100 µM	> 100 µM	> 100 µM	> 100 µM	
C=C1C(=O)O[C@@H]2[C@@H]3O[C@@](C)(CC/C=C(\C)CCC[C@@H]2C)[C@H](O)C[C@@H]13							1.67 µM	4.53 µM			
COc1ccc(C(=O)CC2(O)C(=O)Nc3c(Cl)ccc(Cl)c32)cc1 (configuration not stated)							0.715 µM	19.6 µM	0.64 µM	> 100 µM	
Nc1nc2nc3c(nc2c(=O)[nH]1)CN(c1ccc(C(=O)O)cc1)C3=O								> 100 µM		> 100 µM	
O=P(O)(O)OC1C(OP(=O)(O)O)C(OP(=O)(O)O)C(OP(=O)(O)O)C(OP(=O)(O)O)C1OP(=O)(O)O (configuration not stated)							> 2000 µM	> 2000 µM	> 2000 µM	> 2000 µM	
COC1OC(OC)C2C(c3c(C)cc(C)cc3C)=NOC12 (configuration not stated)	> 100 µM	> 100 µM	> 100 µM	> 100 µM	> 100 µM	> 100 µM					
CCc1ccc(Cc2ccc(CC)c(NC(=O)C(=O)Cc3nc4ccccc4nc3C)c2CC)c(CC)c1NC(=O)C(=O)Cc1nc2ccccc2nc1C	> 100 µM	> 100 µM				> 100 µM					
CCC12C=CCN3CC[C@]4(C(=C(C(=O)OC)[C@@H]1Nc1ncnc5c1ncn5C1OC(COC(C)=O)C(OC(C)=O)C1OC(C)=O)Nc1ccccc14)C32 (some centres not stated)	6.22 µM	5.42 µM	19.5 µM	7.17 µM	7.44 µM	6.94 µM					
